Measurements as given in US20250188079A1, “INHIBITING CYCLIC AMP-RESPONSIVE ELEMENT-BINDING PROTEIN (CREB)” (Forma Therapeutics, Inc., priority 2019, published 2025).

Biological target: CBP (Homo sapiens (Human), UniProt Q92793)
Test: HTRF biochemical assay for CBP activity (TR-FRET, bromodomain)
Type: binding
Conditions: geometric mean, 10-point 3-fold dilution 33 μM to 1.7 nM, read-out: BROMO IC50 TRF TB CBP (μM gmean)
Protocol: Example 1: HTRF Biochemical Assay for CBP Activity
The assay was performed in a final volume of 6 μL in assay buffer containing 50 mM Hepes (pH 7.5, (0.5M Hepes, pH 7.5 solution; Teknova H1575)), 0.5 mM GSH, 0.01% BGG (0.22 p M filtered, Sigma, G7516-25G), 0.005% BSA (0.22 μM filtered, EMD Millipore Corporation, 126575) and 0.01% Triton X-100 (Sigma, T9284-10L). Nanoliter quantities of 10-point, 3-fold serial dilution in DMSO were pre-dispensed into 1536 assay plates (Corning, #3724BC) for a final test concentration of 33 μM to 1.7 nM, top to lowest dose, respectively. 3 μL of 2×Protein and 3 μL of 2×Peptide Ligand were added to assay plates (pre-stamped with compound). Plates were incubated for varying times at room temperature prior to measuring the signal. TR-FRET (Time-Resolved Fluorescence Resonance Energy Transfer) was measured on the PHERAstar (BMG, equipped with HTRF optic module [337/520/490]) or on the Envision (PerkinElmer, equipped with the TRF Laser unit, TRF dual mirror D400/D505 and emission filters M520 and M495). Data were reported as percent inhibition compared with control wells based on the following equation: % inh=1−((TR-FRET ratio−AveLow)/(AveHigh−AveLow)) where TR-FRET ratio=(Fluorescence at 520 nm/Fluorescence at 490 nm)*10000), AveLow=average TR-FRET ratio of no enzyme control (n=32), and AveHigh=average TR-FRET ratio of DMSO control (n=32). IC50 values were determined by curve fitting of the standard 4 parameter logistic fitting algorithm included in the Activity Base software package: IDBS XE Designer Model205. Data is fitted using the Levenburg Marquardt algorithm. As set forth in Table 2 below, an IC50 value of greater than or equal to 0.001 μM and less than or equal to 0.01 μM is marked “++++”; a value greater than 0.01 μM and less than or equal to 0.1 μM is marked “+++”; a value greater than 0.1 μM and less than or equal to 1 μM is marked “++”; and a value greater than 1 μM and less than 1000 μM is marked “+.” Compounds that were not tested in a particular assay are marked “NT.”

Chain of CBP (Q92793 1085-1192): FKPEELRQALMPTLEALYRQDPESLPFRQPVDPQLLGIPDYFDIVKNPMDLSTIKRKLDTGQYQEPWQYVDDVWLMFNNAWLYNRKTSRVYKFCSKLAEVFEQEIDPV

| IC50 | SMILES |
| --- | --- |
| 0.001 to 0.01 µM | COC(=O)N1CCc2ccc3c(nc([C@H]4CC[C@H](C(=O)O)CC4)n3[C@@H](C)Cc3ccc(C)c(F)c3)c2C1 (single isomer, unassigned) [Compound 2] |
| 0.001 to 0.01 µM | COC(=O)N1CCc2ccc3c(nc([C@H]4CC[C@H](C(=O)O)CC4)n3[C@@H](C)Cc3cc(F)cc(F)c3)c2C1 (single isomer, unassigned) [Compound 3] |
| 0.001 to 0.01 µM | COC(=O)N1CCc2ccc3c(nc(N4CCC(C(=O)O)CC4)n3[C@@H](C)Cc3ccccc3)c2C1 (single isomer, unassigned) [Compound 5] |
| 0.001 to 0.01 µM | COC(=O)N1CCc2ccc3c(nc(C4CCCCC4)n3C[C@@H](C(=O)O)c3cc(F)ccc3OC)c2C1 (single isomer, unassigned) [Compound 11] |
| 0.001 to 0.01 µM | COC(=O)N1CCc2ccc3c(nc([C@H]4CCC[C@@H](C(=O)O)C4)n3[C@H](C)Cc3ccccc3)c2C1 (single isomer, unassigned) [Compound 12] |
| 0.001 to 0.01 µM | COC(=O)N1CCc2ccc3c(nc([C@H]4CCC[C@@H](C(=O)O)C4)n3[C@@H](C)Cc3ccccc3)c2C1 (single isomer, unassigned) [Compound 13] |
| 0.001 to 0.01 µM | COC(=O)N1CCc2ccc3c(nc(N4CCC(C(=O)O)CC4)n3[C@@H](C)Cc3ccccc3Cl)c2C1 (single isomer, unassigned) [Compound 14] |
| 0.001 to 0.01 µM | COC(=O)N1CCc2ccc3c(nc([C@H]4CC[C@H](C(=O)NS(C)(=O)=O)CC4)n3[C@@H](C)Cc3ccccc3)c2C1 (single isomer, unassigned) [Compound 15] |
| 0.001 to 0.01 µM | COC(=O)N1CCc2ccc3c(nc(N4CCC(C(=O)O)CC4)n3[C@H](C)Cc3cc(F)cc(OC)c3)c2C1 (single isomer, unassigned) [Compound 16] |
| 0.001 to 0.01 µM | COC(=O)N1CCc2ccc3c(nc([C@@H]4CCC[C@@H](C(=O)O)C4)n3[C@@H](C)Cc3ccccc3C)c2C1 (single isomer, unassigned) [Compound 17] |
| 0.001 to 0.01 µM | COC(=O)N1CCc2ccc3c(nc([C@H]4CCC[C@H](C(=O)O)C4)n3[C@@H](C)Cc3ccccc3C)c2C1 (single isomer, unassigned) [Compound 18] |
| 0.001 to 0.01 µM | COC(=O)N1CCc2ccc3c(nc([C@@H]4CCC[C@@H](C(=O)O)C4)n3[C@@H](C)Cc3ccccc3Cl)c2C1 (single isomer, unassigned) [Compound 20] |
| 0.001 to 0.01 µM | COC(=O)N1CCc2ccc3c(nc(C4CCCCC4)n3C[C@H](C(=O)NS(C)(=O)=O)c3ccccc3)c2C1 (single isomer, unassigned) [Compound 22] |
| 0.001 to 0.01 µM | COC(=O)N1CCc2ccc3c(nc(N4CCC(C(=O)O)CC4)n3[C@@H](C)Cc3ccc(F)c(F)c3)c2C1 (single isomer, unassigned) [Compound 23] |
| 0.001 to 0.01 µM | COC(=O)N1CCc2ccc3c(nc(N4CCC(C(=O)O)CC4)n3[C@@H](C)C(F)(F)c3ccccc3)c2C1 (single isomer, unassigned) [Compound 24] |
| 0.001 to 0.01 µM | COC(=O)N1CCc2ccc3c(nc(C4CCCCC4)n3C[C@H](C(=O)O)c3cccc(F)c3F)c2C1 (single isomer, unassigned) [Compound 26] |
| 0.001 to 0.01 µM | COC(=O)N1CCc2ccc3c(nc(C4CCCCC4)n3C[C@H](C(=O)O)c3cc(F)c(C)cc3OC)c2C1 (single isomer, unassigned) [Compound 27] |
| 0.001 to 0.01 µM | COC(=O)N1CCc2ccc3c(nc(C4CCCCC4)n3C[C@@H](C(=O)O)c3cc(F)c(Cl)cc3OC)c2C1 (single isomer, unassigned) [Compound 32] |
| 0.001 to 0.01 µM | COC(=O)N1CCc2ccc3c(nc(N4CCCCC4)n3[C@H](C)Cc3cccc(C(=O)O)c3)c2C1 (single isomer, unassigned) [Compound 33] |
| 0.001 to 0.01 µM | COC(=O)N1CCc2ccc3c(nc(C4CCCC4)n3C[C@@H](CC(=O)O)c3ccccc3)c2C1 (single isomer, unassigned) [Compound 34] |
| 0.001 to 0.01 µM | COC(=O)N1CCc2ccc3c(nc(C4CCCCC4)n3C[C@@H](C(=O)NS(C)(=O)=O)c3ccccc3)c2C1 (single isomer, unassigned) [Compound 138] |
